Experimental data published in patent US12234477B2, “Scalable primate pluripotent stem cell aggregate suspension culture” (ViaCyte, Inc., priority 2008, dated 2025).
“Also recorded” adds a separate entry of the source.

Columns and labels:
BG01v cells = assay: Inhibition of proliferation of BG01v cells by ErbB tyrosine kinase inhibitors, alkaline phosphatase staining; type: cell-based
Method: To examine the effect of known inhibitors of ErbB tyrosine kinases in hESCs, BG01v cells were plated in 6 well trays on […]™ diluted at 1:1000, in defined culture medium (DC) containing 100 ng/mL LongR3-IGF1, 8 ng/mL FGF2 and 1 ng/mL Activin A. On the next day, DMSO (carrier control), 50 nM-20 μM AG1478 (an ErbB1 inhibitor), or 100 nM-20 μM AG879 (an ErbB2 inhibitor) was added with fresh medium. The cells were cultured for an additional 5 days, with daily media changes. The cultures were then fixed and stained for alkaline phosphatase activity.

R1 mouse ES cells = assay: Inhibition of ErbB1 and ErbB2 signaling in mouse ES cells, alkaline phosphatase staining; type: cell-based
Method: AG1478 and AG879 were used to examine the role of HRG/ErbB signaling in mouse ES cells. R1 mouse ES cells were maintained in standard conditions in DMEM, 10% FBS, 10% KSR, 0.5 U/mL penicillin, 0.5 U/mL streptomycin, 1×NEAA, 1 mM sodium pyruvate, 1000 U/mL LIF (ESGRO), 0.1 mM β-ME, and were passaged with 0.5% trypsin/EDTA. 2×10^5 cells/well were plated in 6 well trays on […]™ diluted at 1:1000. The day after plating, DMSO (carrier control), 1-50 μM AG1478, or 1-50 μM AG879 was added with fresh medium. The cells were cultured an additional 8 days, with daily media changes. The cultures were then fixed and stained for alkaline phosphatase activity.

BG02 cells = assay: Suspension aggregates of BG02 cells in DC-HAIF with and without Y27632, cell counting; type: cell-based, human
Method: To attenuate the loss of cells after initial passaging in suspension, an inhibitor of apoptosis was added to the medium. Cells were passaged as in Example 12, except that Y-27632, an inhibitor of p160-Rho-associated coiled-coil kinase (ROCK), was added to the medium.
Suspension aggregates of BG02 cells were formed by seeding 2×10^6 single cells in 6-well dishes in 3 mL DC-HAIF medium, at 100 rpm on a rotating platform in an incubator (Table 4, Experiment A). 10 μM Y27632 ROCK inhibitor was added to test wells for the course of the experiment and the cultures observed daily and counted after 24 hours (day 1) and after 4 or 5 days. […] Cell counting confirmed that more viable cells were present in the presence of inhibitor (Table 4, Experiment A). This difference in cell number persisted throughout the course of the culture period, with more cells also observed on day 4, compared to cultures without inhibitor. As with previous suspension culture experiments, cells exposed to Y27632 could also be serially passaged, and maintained in an undifferentiated state (not shown). […]
Because of the enhanced survival and aggregation observed in the presence of Y27632, an experiment was performed to examine if it was possible to reduce the number of cells used to seed suspension cultures (Table 4, Experiment C). […] To determine if addition of a ROCK inhibitor would allow cell seeding at lower densities, a range of cell concentrations (from about 2×10^6 total cells down to about 1×10^5 total cells was used to seed suspension cultures in 6-well trays cells in 3 mL DC-HAIF. 10 μM Y27632 was added to all conditions, and the cell number and viability assessed on day 5. Successful aggregation and expansion was observed even at low seeding densities. An approximately 13 fold expansion of viable cells was observed even in cultures that were only seeded with 1×10^5 cells. Inhibition of ROCK with Y27632 therefore facilitated initial survival of hESCs at much lower densities in this suspension system.

ES cells = assay: Suspension cultures in various media, cell counting; type: cell-based; settings: in all conditions (HAIF, HAI, HI)
Method: To determine if suspensions of ES cells could be cultured in the absence of FGF2 and/or Activin A, ES cells were cultured in a variety of media, with and without these factors. […] In addition, the cells in each media were successfully passaged with no morphological signs of differentiation.

[1] = tested on: hES-derived pancreatic epithelial and endocrine type cells; assay: Re-aggregation of dissociated stage 4 or stage 5 adherent cultures; type: cell-based, human; settings: 10 μM
Method: Adherent cultures at either stage 4 (about d10-d14 into the differentiation protocol; pancreatic epithelial and endocrine type cells) or stage 5 (about day 16 to day 30 into the differentiation protocol; endocrine precursor and endocrine cells) were similarly dissociated into single cells, counted, and pelleted. The cell pellet was then resuspended in DMEM CMRL supplemented Pen/Strep and GLUTAMAX™, and 1X B27-supplement and DNase (50-100 μg/mL, Roche Diagnostics) and 0-2% FBS. […] Cells were equally distributed into 6-well plates and placed on a rotating platform at 100 rpm to 140 rpm form 4 hours to overnight substantially as described above.

hESCs = assay: hESC proliferation at physiological levels of insulin and IGF1, cell counting; type: cell-based, human; settings: titrated about 0.2 to about 200 ng/mL, counting after 5 days
Method: Essentially all of the reported culture conditions for hESCs to date include supraphysiological levels of insulin, which can stimulate both IR and IGF1R. To distinguish the activities that insulin and insulin-substitutes exert, compared to IGF1, hESCs are cultured in defined media conditions in physiological levels of these growth factors. The concentrations of insulin and IGF1 are titrated from about 0.2 to about 200 ng/mL and cell proliferation is monitored by counting cells after 5 days. Cultures that expand successfully are serially passaged 5 times.

BG02 hESCs = assay: Proliferation of hESCs growing in conditioned medium (CM) with AG825; type: cell-based
Description: FIGS. 6A-6F depict the inhibition of proliferation of BG02 cells grown in conditioned media (CM). […] The mean and range of normalized relative intensity is plotted (right).
(§1) Colony and cell-counting assays confirmed that LongR3-IGF1 and HRG played the major roles in self-renewal and proliferation in the context of one of the embodiments of the present invention (FIG. 6D, FIG. 6E). Phosphorylation of IGF1R, IR, […], ErbB2, and ErbB3 was also observed in both steady-state DC-HAIF cultures, and in starved cultures that were pulsed with DC-HAIF (FIG. 6F).

ErbB2 = molecular target: T1, ErbB2 (Homo sapiens, UniProt P04626); assay: Western blotting of ErbB2 autophosphorylation in starved/heregulin pulsed hESCs in DC-HAIF; type: cell-based
T1 construct: endogenous in cells; host or cells: human embryonic stem cells (hESCs) grown in DC-HAIF
Description: as §1

[2] = tested on: hES-derived cell aggregates; assay: QPCR of endocrine progenitor markers after stage 3 with different noggin concentrations; type: cell-based, human; settings: lower concentration (25 ng/mL vs 50 ng/mL) in stage 3; any given cell density
Method: Human ES cell aggregates and hES-derived cell aggregates, including d0 cell aggregates produced directly in differentiation media, were generated substantially as described above. After about five (5) days of differentiation through stages 1 and 2, the differentiating cell aggregates were pooled and re-aliquoted into individual wells at different seeding densities, e.g., a 28 mL suspension of foregut endoderm stage cell aggregate suspension was seeded or re-aliquoted at 4, 6, 8 or 10 mL per well (a 2.5-fold range of cell densities). This cell distribution was carried out in duplicate and one set of wells was fed with a stage 3 media (DMEM/PenStrep/GLUTAMAX™+1% B27 supplement (vol/vol)+0.25 uM KAAD-cyclopamine+3 nM TTNPB) containing noggin at 50 ng/mL and the other set of wells contained noggin at 25 ng/mL. Stage 3 proceeded for 3 days with daily media exchange. Cell samples were taken in duplicate for real-time QPCR analysis at the end of the three days of stage 3 (or about day 8) and again at after stage 4 (or about day 14).

[3] = morphology, alkaline phosphatase activity

T1 sequence (P04626 23-1255): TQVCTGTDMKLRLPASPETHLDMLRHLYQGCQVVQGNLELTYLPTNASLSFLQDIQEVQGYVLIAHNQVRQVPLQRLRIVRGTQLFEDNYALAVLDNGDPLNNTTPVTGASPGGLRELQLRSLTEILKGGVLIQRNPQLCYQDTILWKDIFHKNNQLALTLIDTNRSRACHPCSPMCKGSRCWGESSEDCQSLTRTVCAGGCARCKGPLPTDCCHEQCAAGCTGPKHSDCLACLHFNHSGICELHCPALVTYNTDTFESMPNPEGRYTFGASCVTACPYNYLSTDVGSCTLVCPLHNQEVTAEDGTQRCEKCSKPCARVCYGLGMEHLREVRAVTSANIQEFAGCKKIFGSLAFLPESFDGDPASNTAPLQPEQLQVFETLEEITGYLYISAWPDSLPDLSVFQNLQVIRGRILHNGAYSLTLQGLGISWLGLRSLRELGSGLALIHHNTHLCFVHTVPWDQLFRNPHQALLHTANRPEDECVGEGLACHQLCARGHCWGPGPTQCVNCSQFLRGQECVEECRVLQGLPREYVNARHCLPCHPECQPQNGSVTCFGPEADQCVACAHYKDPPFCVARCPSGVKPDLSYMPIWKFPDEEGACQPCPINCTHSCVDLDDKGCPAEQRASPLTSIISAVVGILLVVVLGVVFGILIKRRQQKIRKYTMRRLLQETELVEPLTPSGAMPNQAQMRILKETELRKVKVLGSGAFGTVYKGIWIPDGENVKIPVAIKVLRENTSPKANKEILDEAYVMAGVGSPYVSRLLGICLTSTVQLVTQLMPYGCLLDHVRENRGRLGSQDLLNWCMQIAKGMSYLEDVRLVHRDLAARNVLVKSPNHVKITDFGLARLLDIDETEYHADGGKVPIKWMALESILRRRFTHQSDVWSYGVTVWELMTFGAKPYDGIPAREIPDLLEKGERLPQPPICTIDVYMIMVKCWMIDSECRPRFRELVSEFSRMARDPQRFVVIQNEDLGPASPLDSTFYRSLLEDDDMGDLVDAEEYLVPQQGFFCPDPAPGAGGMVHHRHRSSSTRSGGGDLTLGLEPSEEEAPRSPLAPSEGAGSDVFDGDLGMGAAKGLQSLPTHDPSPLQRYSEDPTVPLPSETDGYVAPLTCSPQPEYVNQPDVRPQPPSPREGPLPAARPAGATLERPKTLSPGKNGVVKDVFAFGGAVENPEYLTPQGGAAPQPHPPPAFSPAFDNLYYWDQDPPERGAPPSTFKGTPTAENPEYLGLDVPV

Question: With COc1cc2ncnc(Nc3cccc(Cl)c3)c2cc1OC [AG1478] as the molecule, how does the “effect on cell proliferation” value (BG01v cells; 50 nM-20 μM, 5 days) read?
Answer: The value was “neither DMSO nor AG1478 (50 nM-20 μM) had an apparent affect on cell proliferation; also recorded: did not appear to affect proliferation”.

Question: What about the “effect on cell proliferation” value (R1 mouse ES cells; 1-50 μM, 8 days, 10% FBS, 10% KSR, LIF) of the same molecule?
Answer: Its value is “no apparent affect on cell proliferation; also recorded: did not overtly inhibit proliferation”.

Question: Which results are given for CC(C)(C)c1cc(/C=C(\C#N)C(N)=S)cc(C(C)(C)C)c1O [AG879]?
Answer: cell growth (BG01v cells; 5 μM, 5 days): substantially inhibited cell growth; also recorded: substantially slowed cell growth; cell death (BG01v cells; 20 μM): caused cell death; differentiation of cultures grown in inhibitor (BG01v cells; [3]): did not appear to differentiate; proliferation (R1 mouse ES cells; 20 μM, 8 days): may have slowed proliferation; cell growth (R1 mouse ES cells; 50 μM, 8 days): substantially inhibited cell growth; concentration required to inhibit proliferation, mESCs relative to BG01v cells (R1 mouse ES cells; mESCs vs BG01v cells grown in defined conditions): ~10 ×; differentiation of mESCs grown in inhibitor (R1 mouse ES cells; [3]): did not appear to differentiate

Question: How did the “initial survival and aggregation of hESCs in suspension culture” value (BG02 cells; 10 μM, compared to medium without inhibitor) turn out when C[C@@H](N)[C@H]1CC[C@H](C(=O)Nc2ccncc2)CC1 [Y27632] was run?
Answer: The value was “much larger aggregates were formed; also recorded: enhanced initial survival and aggregation of hESCs; also recorded: enhancement of hESC aggregation”.

Question: And the “cell number when the aggregates were split again” value (BG02 cells; Expt. A, compared to cultures without inhibitor)?
Answer: Its value is “almost twice as many cells were observed”.

Question: And the “differentiation state, RT-PCR of pluripotency markers” value (BG02 cells; suspension culture in the presence of Y27632)?
Answer: The value was “remained undifferentiated”.

Question: And the “yield of cells generated by day 5” value (ES cells)?
Answer: Its value is “increased the yield of cells”.

Question: And the cell survival [1]?
Answer: The cell survival was “supported cell survival”.

Question: How did the “expansion of hESC cultures” value (hESCs) turn out when IGF1: insulin-like growth factor was run?
Answer: The value was “support the expansion of hESC cultures”.

Question: What does the source list for COc1cc(/C=C(\C#N)C(N)=O)cc(CSc2nc3ccccc3s2)c1O [AG825]?
Answer: cell death (BG02 hESCs): without widespread cell death; proliferation of hESCs (BG02 hESCs; 50 μM): significantly inhibited proliferation; autophosphorylation of ErbB2 at tyrosine-1248 (ErbB2): inhibited autophosphorylation of ErbB2 at tyrosine-1248; also recorded: inhibits ErbB2 Y1248 phosphorylation

Question: For “insulin: protein that binds to the insulin receptor”, which “expansion of hESC cultures” value (hESCs) is on record?
Answer: The value was “do not”.

B1: noggin: recombinant human Noggin, BMP antagonist (protein, UniProt Q13253 28-232, looked up)
Noggin: QHYLHIRPAPSDNLPLVDLIEHPDPIFDPKEKDLNETLLRSLLGGHYDPGFMATSPPEDRPGGGGGAAGGAEDLAELDQLLRQRPSGAMPSEIKGLEFSEGLAQGKKQRLSKKLRRKLQMWLWSQTFCPVLYAWNDLGSRFWPRYVKVGSCFSKRSCSVPEGMVCKPSKSVHLTVLRWRCQRRGGQRCGWIPIQYPIISECKCSC
Question: With B1 as the molecule, how does the “endocrine progenitor cell types, expression of NGN3 and NKX2-2” value [2] read?
Answer: Its value is “reduced expression of NGN3 and NKX2-2”.
